Measurements published in US20230149510A1, “METHOD FOR ALLEVIATING ARTHRITIS USING EPIDERMAL GROWTH FACTOR” (Lovin BioMed Co., Ltd., priority 2021, published 2023).

Key:
[1] = test system: articular cartilage of the right knee joint, MIA-induced OA; assay: Histopathologic analysis of right knee joint tissue (modified Mankin scoring), MIA-induced OA; assay type: in vivo, Sprague Dawley rats; details: rats; for morphological observation of articular cartilage of the right knee joint: 30 μL intraarticular on day 3 and day 14, day 28, versus pathological control, data not shown
Method: The Sprague Dawley rats were divided into five groups, including one normal control group, one pathological control group, one comparative group, and two experimental groups (i.e., experimental groups 1 to 2) (n=5 rats in each group).
The right knee joint of the respective rat in the pathological control group, the comparative group, and the experimental groups 1 and 2 was intraarticularly injected with 30 μL of a monosodium iodoacetate (MIA) solution (50 g/L, in 0.9% normal saline). In addition, the right knee joint of the respective rat in the normal control group was intraarticularly injected with 30 μL of 0.9% normal saline. […]
The tissue section was subjected to hematoxylin-eosin staining, and Safranin 0 and fast green staining using a staining protocol well-known to those skilled in the art, and was then observed under an optical microscope (Olympus, CKX41) at a magnification of 200×. Two areas of the respective tissue section were randomly selected and photographed, and pathological changes (such as cartilage damage, chondrocyte loss, and proteoglycan loss) in the respective tissue section was assessed according to the modified Mankin scoring system described in Pauli C. et al. (2012), Osteoarthritis Cartilage, 20:476-485. The degrees of cartilage damage, chondrocyte loss, and proteoglycan loss were scored on a scale from 1 to 5. […]
The data thus obtained were analyzed according to the method described in section 1 of the “General Procedures”.

[2] = test system: TNF-α, IL-1β, IL-6, IL-17A, IFN-γ and IL-8 in sole tissue, CII-induced RA; assay: Inflammatory markers in sole tissue (ELISA), collagen-induced RA; assay type: in vivo, DBA/1 mice; details: mouse sole tissue
Method: 2 mg/mL of a Chick type II collagen (CII) solution (Chondrex Inc., Cat. No. 20012) (in 10 mM acetic acid) was mixed with complete Freund's adjuvant (Sigma Aldrich, Cat. No. F5881-10ML) at a ratio of 1:1 (v/v), so as to obtain a first CII emulsion. 2 mg/mL of a Chick type CII solution was mixed with incomplete Freund's adjuvant (ChemCruzx, Cat. No. sc-24648) at a ratio of 1:1 (v/v), so as to obtain a second CII emulsion.
The female DBA/1 mice were divided into five groups, including one normal control group, one pathological control group, one comparative group, and two experimental groups (i.e., experimental groups 1 to 2) (n=6 mice in each group). 200 μL of the first CII emulsion was injected subcutaneously into the tail of the respective mouse of the pathological control group, the comparative group, and the two experimental groups. The mice were subjected to a boost injection using 200 μL of the second CII emulsion on the 21st day after the initial immunization, so as to induce the occurrence of RA. In addition, the rats of the normal control group were injected with an adjuvant solution (in PBS).
After completion of the boost injection, the respective mouse in the comparative group was intraperitoneally injected with 100 μL of 1% HA, the respective mouse in the experimental group 1 was intraperitoneally injected with 100 μL of the EGF solution (containing 20 μg/g EGF) prepared in section C of Example 1, the respective mouse in the experimental group 2 was intraperitoneally injected with 100 μL of the mixture solution (containing 20 μg/g EGF) prepared in section C of Example 1. Each mouse was administered once daily for a total period of 20 days.
After completion of the evaluation of RA severity as described in section C of this example, the mice in each group were sacrificed by virtue of 95% CO2 asphyxiation, and the knee joint tissue of the hind leg and the sole tissue were obtained from each mouse carcass. The knee joint tissue of the hind leg of each mouse was subjected to histological sectioning, hematoxylin-eosin staining, and microscopic observation in sequence according to the methods described in section F of Example 1.
100 mg of the sole tissue of each mouse obtained in section D of this example was subjected to a freezing treatment with liquid nitrogen, followed by grinding. The resultant ground tissue was mixed with 1 mL of a tissue lysis buffer (Gold Biotechnology, Inc., Cat. No. GB-181-100) (containing protease inhibitor cocktail), followed by determining the contents of TNF-α, IL-1β, IL-6, IL-17A, IFN-γ, and IL-8 respectively using a TNF-α ELISA kit (BioLegend, Cat. No. 430904), an IL-1β ELISA kit (BioLegend, Cat. No. 432604), an IL-6 ELISA kit (BioLegend, Cat. No. 431304), an IL-17A ELISA kit (BioLegend, Cat. No. 432504), an IFN-γ ELISA kit (BioLegend, Cat. No. 430807), and an IL-8 ELISA kit (MyBioSource, Cat. No. MBS261967) in accordance with the manufacturer's instructions.
The data thus obtained were analyzed according to the method described in section 1 of “General Procedures”.

Substance	morphological observation of articular cartilage of the right knee joint [1]	content of IL-1β ([2]; FIG. 8)	content of IL-6 ([2]; FIG. 8)	content of TNF-α ([2]; FIG. 8)	content of IFN-γ ([2]; FIG. 9)	content of IL-8 ([2]; FIG. 9)	content of IL-17A ([2]; FIG. 9)	scale of OA (modified Mankin scoring, scale 1 to 5) ([1]; 30 μL intraarticular on day 3 and day 14, day 28, FIG. 2)
hyaluronic acid [HA, reference compound]	fewer cracks and a smoother surface, and less chondrocyte and proteoglycan loss were observed	–	–	–	–	–	–	–
EGF: Epidermal growth factor (Cat. No. 02-108, Joycom Bio-chem) dissolved in PBS, 20 μg/g EGF; given to experimental group 1 (NSDSECPLSHDGYCLHDGVCMYIEALDKYACNCVVGYIGERCQYRDLKWWELR; UniProt P01133 971-1023, looked up)	fewer cracks and a smoother surface, and less chondrocyte and proteoglycan loss were observed	apparently or significantly lower than those determined in the pathological control group	apparently or significantly lower than those determined in the pathological control group	apparently or significantly lower than those determined in the pathological control group	apparently or significantly lower than those determined in the pathological control group	apparently or significantly lower than those determined in the pathological control group	apparently or significantly lower than those determined in the pathological control group	significantly lower than that determined in the pathological control group
